According to patent US8802414B2, “Methods and materials for reducing biofilms” (priority 2007, dated 2014):
Entries after “also recorded” stand apart in the source; their conditions may differ.

Assays:
[1] = tested on: S. lugdunensis clinical isolates; experiment: Microtiter plate biofilm formation assay; assay type: cell-based, Staphylococcus lugdunensis
Protocol: (§1) Bacteria stored at −70° C. were freshly streaked on sheep's blood agar or trypticase soy agar before each replicate experiment. For microtiter plate biofilm formation and detachment assays, immunodetection assays, and confocal microscopy assays (unless stated otherwise), isolated colonies from 16 to 24 hour-old plates were grown in trypticase soy broth (BD BBL, Franklin Lakes, N.J.) supplemented with 1% (w/v) sterile-filtered glucose (TSBgluc1%) with shaking at 130 rpm for 22-24 hours. Unless otherwise noted, all experiments were incubated in ambient air at 37° C.
(§2) Biofilm formation was assayed using a microtiter plate assay as described elsewhere (Christensen et al., J. Clin. Microbiol., 22:996-1006 (1985)), with modifications as described elsewhere (Chaignon et al., Appl. Microbiol. Biotechnol., 75(1):125-132 (2007) and Frank and Patel, Diagn. Microbiol. Infect. Dis., 57:355-359 (2007)). Briefly, cultures were adjusted with TSBgluac1% to match the turbidity of a 1.0 McFarland standard (˜1-2×10^8 cfu/mL) and diluted 1:50 in TSBgluc1% or TSBgluc1% containing various concentrations of sodium chloride (1-5%, w/v) or ethanol (0.5-4%, v/v). For experiments examining the effect of glucose concentration on biofilm formation, bacteria were grown overnight, adjusted to 1.0 McFarland, and diluted in TSB containing the corresponding amount of glucose being tested (0.5-5%, w/v). 200 μL aliquots of each diluted culture were placed into four wells of 96-well microtiter plates (Nuclon Delta, Nalge Nunc International, Rochester, N.Y.), and incubated for 24 hours. Cell growth was measured by reading the OD600 nm on a microplate reader (Multiskan, Thermo Electron, Waltham, Mass.). Culture media was discarded, and wells were washed twice by fully submerging plates in deionized water to remove non-adherent cells and allowed to air-dry overnight. Biofilms remaining in the wells were stained with 0.1% safranin for 1 minute, rinsed under running tap water to remove excess stain, and air-dried overnight. In order to ensure homogeneity among stained material in the wells, stained biofilms were resuspended in 200 μL of 30 percent glacial acetic acid, and the OD492 nm was measured.

S. aureus SA113 = experiment: Microtiter plate biofilm formation assay; assay type: cell-based, Staphylococcus aureus
Protocol: as §1, §2

S. epidermidis RP62A = experiment: Microtiter plate biofilm formation assay; assay type: cell-based, Staphylococcus epidermidis
Protocol: as §1, §2

[2] = tested on: pre-formed S. lugdunensis biofilms; experiment: Microtiter plate biofilm detachment assay; assay type: cell-based, Staphylococcus lugdunensis
Protocol: 40 mM sodium metaperiodate (NaIO4, Sigma-Aldrich) in water, 40 μg/mL purified recombinant dispersin B (obtained from Kane Biotech Inc., Winnipeg, Manitoba, Canada) in sodium phosphate buffer (50 mM sodium phosphate (pH 5.8), 100 mM NaCl), 100 μg/mL proteinase K (Roche Applied Science) in 10 mM Tris-HCl pH 7.5, 10 U/mL trypsin (Promega Corp., Madison, Wis.) in 10 mM Tris-HCl pH 7.5, 100 μg/mL chymotrypsin (Sigma-Aldrich) in 10 mM Tris-HCl pH 7.5, and 100 μg/mL thermolysin (Sigma-Aldrich) in 10 mM Tris-HCl pH 7.5 were tested for their ability to detach pre-formed S. lugdunensis biofilms from polystyrene microtiter plate wells. For certain experiments, proteinase K was inactivated by boiling for 40 minutes.
Biofilms grown in TSBgluc1% were formed in wells of microtiter plates and washed twice with deionized water, as described above for the microtiter plate biofilm formation assay. 100 μL of NaIO4, enzyme, or suitable control was carefully added so as not to mechanically detach biofilms on the bottoms of wells. Plates were incubated at 37° C. for 2 hours, and contents of wells were discarded and washed twice with deionized water. Plates were air-dried overnight, stained with 0.1% safranin for 1 minute, and processed as described above to quantify the amount of stained biofilm remaining after treatment, relative to treatment with the control reagent. Four wells were measured for each treatment condition. Assays were repeated two or three times on separate days with similar results.

[3] = tested on: pre-formed biofilms of S. epidermidis RP62A; experiment: Microtiter plate biofilm detachment assay; assay type: cell-based, Staphylococcus epidermidis; conditions: 2 hours at 37° C.; safranin OD492
[4] = tested on: pre-formed biofilms of S. carnosus TM300+pCN27; experiment: Microtiter plate biofilm detachment assay; assay type: cell-based, Staphylococcus carnosus; conditions: 2 hours at 37° C.; safranin OD492
[5] = increasing ethanol concentrations (0.5-4% v/v) in TSBgluc1%
[6] = increasing salt concentrations (1-5% sodium chloride)
[7] = 2 hours at 37° C., safranin OD492, 15 clinical isolates

Compound: CCO [ethanol]
- adherence ([1]; 2% ethanol, all S. lugdunensis that formed measurable baseline biofilms): prevent the adherence
- killing / growth of isolates ([1]; 2% ethanol, isolates IDRL-2554, IDRL-2640 and IDRL-5254 only): killed; also recorded: inhibited growth
- killing of bacteria ([1]; 4% ethanol, all S. lugdunensis isolates): bactericidal
- levels of biofilm production ([1]; most ethanol concentrations, isolates with baseline biofilm OD492 >=0.150): reduced the levels of biofilm production
- biofilm production (S. aureus SA113; [5]): significant reductions in biofilm production
- biofilm production (S. epidermidis RP62A; [5]): significant reductions in biofilm production

Compound: [Cl-].[Na+] [sodium chloride]
- biofilm formation ([1]; 5% sodium chloride): Essentially no measurable quantity of biofilm could be detected
- S. lugdunensis isolates that formed more biofilm ([1]; TSBgluc1% containing 1 or 2% sodium chloride, 11/15 isolates): 73%
- adherence to microtiter wells ([1]; higher concentrations of salt (above 2% sodium chloride)): substantially reduced
- growth (optical density of the biomass in each well) [1, 6]: not affected
- biofilm compared to baseline biofilm formation (S. aureus SA113; 5% sodium chloride): significantly reduced, yet still discernable
- biofilm levels (S. aureus SA113; TSBgluc1% with 1-2% sodium chloride): increase
- growth (optical density of the biomass in each well) (S. aureus SA113; [6]): not affected
- biofilm compared to baseline biofilm formation (S. epidermidis RP62A; 5% sodium chloride): not affected
- biofilm levels (S. epidermidis RP62A; TSBgluc1% with 1-3% sodium chloride): increase
- growth (optical density of the biomass in each well) (S. epidermidis RP62A; [6]): not affected

Compound: [Na+].[O-][I+3]([O-])([O-])[O-] [sodium metaperiodate]
- S. lugdunensis biofilms on whose release there was moderate to little effect ([2]; 40 mM, 2 hours at 37° C., 8/15 isolates): 53%
- biofilm detachment compared to buffer ([2]; seven isolates IDRL-2394, IDRL-2526, IDRL-2554, IDRL-2588, IDRL-2622, IDRL-2640, IDRL-5258, 40 mM, 2 hours): greater susceptibility
- biofilm detachment compared to buffer [3]: substantial detachment
- biofilm detachment compared to buffer [4]: essentially completely released

Compound: chymotrypsin
- biofilm detachment compared to buffer [2, 7]: detach S. lugdunensis biofilms selectively

Compound: trypsin
- biofilm detachment compared to buffer [2, 7]: Concordant results
- biofilm release ([2]; isolates IDRL-2414 and IDRL-2526, 10 U/mL, 2 hours at 37° C.): noticeably more resistant to release
- biofilm detachment compared to buffer [3]: Concordant results
- biofilm detachment compared to buffer [4]: Concordant results
